From patent publication US10322123B2, “Compound for anti-cancer therapy that acts by targeting GOF mutant P53 and stimulates P73 to restore the P53 pathway signaling” (The Penn State Research Foundation, priority 2014, dated 2019)

How the values were obtained:
[1] = system: p53 transcriptional activity; experiment: p53-responsive luciferase reporter bioluminescence imaging; type: cell-based, human; conditions: for 1/slope of dose-dependent p53-responsive reporter bioluminescence: 24 hr
Description: Functional cell-based screening for small molecules that can increase p53-transcriptional activity was performed using noninvasive bioluminescence imaging in human colorectal cancer cells (SW480, DLD-1, HCT116 and p53-null HCT116) that stably express a p53-regulated reporter, as previously described (Wang W, et al., Proc Natl Acad Sci USA 2006; 103: 11003-8). Cells were seeded in 96-well plates at a density of 5×10^4 cells/well. […] Cells treated with 5 μM of Prodigiosin were used as a positive control, and DMSO treatment was used as a negative control in each screened plate. The bioluminescence in each treatment was normalized to DMSO treatment.
SW480, DLD-1, HCT116 and p53-null HCT116 cells which stably express a p53-regulated luciferase reporter were generated as previously described (Wang et al., 2006, Proc. Natl. Acad. Sci. USA 103:11003-11008; Wang et al., 2003, Cancer Biol. Ther. 2:196-202). MRCS, Wi38, Hop92 and RXF393 were obtained from ATCC and cultured as recommended. Cells were regularly authenticated by bioluminescence, growth and morphological observation.

DLD-1 cells = experiment: CellTiter-Glo cell viability, DLD-1 with Ad-p73 or p73 knock-down; type: cell-based, human; conditions: for Combination index (CI): DLD-1
Description: Cells at a concentration of 5000 cells/well in 96-well plates were treated with NSC59984 or other drugs. At seventy-two hours after treatment, cells were mixed with an equal volume of CellTiter-Glo reagents (Promega, Madison, Wis.), following the manufacturer's protocol, and bioluminescence imaging was measured using the IVIS imager.
Cells were infected with retrovirus containing the pSIREN-REtrpcQ retroviral vector recombinant with TAp73 RNAi. Cells were cultured with blasticidin for several weeks, and blasticidin-resistant clones were selected. Knock-down of p73 was detected by measuring p73 protein levels by Western blot with anti-p73 antibody (Bethyl laboratories Inc. USA).
Cells were infected with an adenovirus that expresses p73-beta (Ad-p73) or wild type p53 (Ad-p53) and cultured for 24 hr, as previously described (Huang C, et al., Cancer Biol Ther 2009; 8: 2186-93). Then, the infected cells were cultured in fresh medium and subjected to different treatments.
All results were obtained from triplicate experiments, unless other indicated. Statistical analyses were performed using PRISM4 Software (GraphPad Software, Inc., San Diego, Calif., USA), ANOVA and Student's t-test. Statistical significances were determined by p<0.05. Combination indices were calculated using the Chou-Talalay method with CalcuSyn software (biosoft).

p73 = target: T1, p73 (Homo sapiens, UniProt O15350); experiment: p73 protein level Western blot; type: cell-based; conditions: mutant p53-expressing tumor cells, 8 hours
T1 construct: endogenous in cells
Description: Proteins were extracted from cells and electrophoresed through 4-12% SDS-PAGE then transferred to PVDF membranes. The primary antibodies indicated in the figures were incubated with the transferred PVDF in blocking buffer at 4° C. overnight. Antibody binding was detected on PVDF with appropriate IRDye-secondary antibodies (LI-COR Biosciences, USA) by the ODYSSEY infrared imaging system.

[2] = Body weight and toxicity in xenograft mice; type: in vivo; conditions: 45 mg/kg i.p. every 5 days
Description: CRL nude mice (female, 4-6 weeks old) were inoculated s.c. in the opposite flanks with 5 million DLD-1 or p73 knock-down DLD-1 cells in an equal volume of martrigel. Treatment with NSC59984 (i.p. injection) was initiated when the tumor masses reached a size of 3-5 mm. NSC59984 (45 mg/kg) was injected by i.p. route every 5 days. Fifteen days after treatment, the mice were euthanized using an institutional animal care and use committee-approved animal protocol.

T1 sequence (O15350 whole entry): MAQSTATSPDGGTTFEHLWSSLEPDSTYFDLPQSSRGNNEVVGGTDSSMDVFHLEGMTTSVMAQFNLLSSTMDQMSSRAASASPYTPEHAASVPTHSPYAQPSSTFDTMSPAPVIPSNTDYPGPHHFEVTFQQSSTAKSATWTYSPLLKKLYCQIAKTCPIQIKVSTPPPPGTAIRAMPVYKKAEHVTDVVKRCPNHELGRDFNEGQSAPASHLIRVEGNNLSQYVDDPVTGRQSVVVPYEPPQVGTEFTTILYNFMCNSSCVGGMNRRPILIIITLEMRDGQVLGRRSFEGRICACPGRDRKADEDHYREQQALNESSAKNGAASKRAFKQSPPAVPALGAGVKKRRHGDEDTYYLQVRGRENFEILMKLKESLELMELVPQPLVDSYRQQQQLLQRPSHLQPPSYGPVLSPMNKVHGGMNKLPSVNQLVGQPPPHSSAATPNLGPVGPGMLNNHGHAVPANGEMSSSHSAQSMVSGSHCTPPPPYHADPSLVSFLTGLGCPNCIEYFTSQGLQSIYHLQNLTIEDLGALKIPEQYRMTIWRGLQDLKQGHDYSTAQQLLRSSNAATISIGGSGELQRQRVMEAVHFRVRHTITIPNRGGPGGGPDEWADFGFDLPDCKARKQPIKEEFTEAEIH

CN1CCN(C(=O)/C=C/c2ccc([N+](=O)[O-])o2)CC1 [NSC59984, (E)-1-(4-methylpiperazin-1-yl)-3-(5-nitrofuran-2-yl)prop-2-en-1-one]
1/slope of dose-dependent p53-responsive reporter bioluminescence ([1]; DLD-1 (mutant p53 S241F)): 29.75 | 1/slope of dose-dependent p53-responsive reporter bioluminescence ([1]; SW480 (mutant p53 R273H, P309S)): 31.37 | p53-responsive bioluminescence ([1]; SW480 cells, 10 μM): increases | 1/slope of dose-dependent p53-responsive reporter bioluminescence ([1]; p53-null HCT116 cells): 102.9 | p53-responsive bioluminescence ([1]; p53-null HCT116 cells, increasing doses): slightly induced | p53-responsive bioluminescence ([1]; p73-overexpressing (Ad-p73) SW480 cells vs wild-type p53-overexpressing SW480 cells, 8 hr): significantly increased | NSC59984-induced p53-responsive bioluminescence ([1]; p73 knock-down SW480 cells, 8 hr): abrogated | 1/slope of dose-dependent p53-responsive reporter bioluminescence ([1]; wild-type p53-expressing HCT116 cells): 328.4 | p53-responsive bioluminescence ([1]; wild-type p53-expressing HCT116 cells, increasing doses): no significant increase | Combination index (CI) (DLD-1 cells; Ad-P73 dilution 1:1k, NSC59984 12 μM): 0.273 | Combination index (CI) (DLD-1 cells; Ad-P73 dilution 1:1k, NSC59984 25 μM): 0.12 | Combination index (CI) (DLD-1 cells; Ad-P73 dilution 1:1k, NSC59984 50 μM): 0.033 | Combination index (CI) (DLD-1 cells; Ad-P73 dilution 1:2k, NSC59984 12 μM): 0.357 | Combination index (CI) (DLD-1 cells; Ad-P73 dilution 1:2k, NSC59984 25 μM): 0.127 | Combination index (CI) (DLD-1 cells; Ad-P73 dilution 1:2k, NSC59984 50 μM): 0.039 | Combination index (CI) (DLD-1 cells; Ad-P73 dilution 1:4k, NSC59984 12 μM): 0.303 | Combination index (CI) (DLD-1 cells; Ad-P73 dilution 1:4k, NSC59984 25 μM): 0.121 | Combination index (CI) (DLD-1 cells; Ad-P73 dilution 1:4k, NSC59984 50 μM): 0.037 | Combination index (CI) (DLD-1 cells; Ad-P73 dilution 1:8k, NSC59984 12 μM): 0.319 | Combination index (CI) (DLD-1 cells; Ad-P73 dilution 1:8k, NSC59984 25 μM): 0.115 | Combination index (CI) (DLD-1 cells; Ad-P73 dilution 1:8k, NSC59984 50 μM): 0.036 | Combination index (CI) (DLD-1 cells; Ad-P73 dilution 1:16k, NSC59984 12 μM): 0.239 | Combination index (CI) (DLD-1 cells; Ad-P73 dilution 1:16k, NSC59984 25 μM): 0.098 | Combination index (CI) (DLD-1 cells; Ad-P73 dilution 1:16k, NSC59984 50 μM): 0.027 | Combination index (CI) (DLD-1 cells; Ad-P73 dilution 1:32k, NSC59984 12 μM): 0.636 | Combination index (CI) (DLD-1 cells; Ad-P73 dilution 1:32k, NSC59984 25 μM): 0.282 | Combination index (CI) (DLD-1 cells; Ad-P73 dilution 1:32k, NSC59984 50 μM): 0.078 | cell viability, combination with exogenous p73 (DLD-1 cells; DLD-1 cells infected with Ad-p73): synergized | cell viability (DLD-1 cells; p73 knock-down DLD-1 cells compared with DLD-1 cells, 72 hr): higher | p73 protein levels (p73): not found to be increased | mouse body weights [2]: did not cause an obvious change | toxic effect in mice ([2]; tested dose): no overt toxic effect
